Consider 1 compound from ChEMBL document CHEMBL1151380, “Recent Studies on Bioactive Compounds From Plants” (J Nat Prod, 1982).

Calls of active or inactive are those of the source. The rule behind the calls is not given here.

For data set [1], the system named is Spodoptera exempta. The data set can be described thus: Antifeedant activity in Spodoptera exempta by choice test. In kind it is functional.
Data set [2] deals with Spodoptera littoralis. The data set is described as follows: Antifeedant activity in Spodoptera littoralis by choice test. It is filed as functional.
In data set [3] the test system is Schistocerca gregaria. The data set is described as follows: Antifeedant activity in Schistocerca gregaria at 0.01% dry weight of fiber disc containing 5% sucrose by choice test. In kind it is functional.
Data set [4] deals with Locusta migratoria. The data set is described as follows: Antifeedant activity in Locusta migratoria at 0.01% dry weight of fiber disc containing 5% sucrose by choice test. In kind it is functional.
Data set [5] deals with Spodoptera eridania. The data set can be described thus: Antifeedant activity in Spodoptera eridania by choice test. In kind it is functional, organism-based.
Data set [6] concerns Epilachna varivestis. The data set can be described thus: Antifeedant activity in Epilachna varivestis by choice test. In kind it is functional, organism-based.
The subject of data set [7] is Schistocerca nitens. The data set can be described thus: Antifeedant activity in Schistocerca vaga by choice test. In kind it is functional, organism-based.
The subject of data set [8] is Manduca sexta. The data set is described as follows: Antifeedant activity in Manduca sexta by choice test. In kind it is functional, organism-based.
The subject of data set [9] is Saccharomyces cerevisiae. The data set is described as follows: Antimicrobial activity against Saccharomyces cerevisiae. In kind it is functional.
Data set [10] has as its system Cyberlindnera jadinii. The data set is described as follows: Antimicrobial activity against Candida utilis. It is filed as functional.
Data set [11] has as its system Sclerotinia sclerotiorum. The data set can be described thus: Antimicrobial activity against Sclerotinia libertiana. It is filed as functional.
The subject of data set [12] is Mucor mucedo. The data set can be described thus: Antimicrobial activity against Mucor mucedo. In kind it is functional.
For data set [13], the system named is Biomphalaria glabrata. The data set can be described thus: Molluscicidal activity against Biomphalaria glabrata after 2 hrs. In kind it is functional.
Data set [14] has as its system Biomphalaria pfeifferi. The data set can be described thus: Molluscicidal activity against Biomphalaria pfeifferi after 2 hrs. It is filed as functional.
The test system of data set [15] is Radix natalensis. The data set is described as follows: Molluscicidal activity against Lymnaea natalensis after 2 hrs. In kind it is functional.
The test system of data set [16] is KB. The data set is described as follows: Cytotoxicity against human KB cells. It is filed as functional.
A short description of data set [17]: Acute toxicity in sc dosed mouse. It is filed as organism-based. The note with it: in vivo.

On to `CC1(C)CCC[C@@]2(C)[C@H]1CC=C(C=O)[C@]2(O)C=O` [WARBURGANAL], for which the Activity in data set [1] came out at 0.1 ppm; in data set [2], 10 ppm; in data set [3] it was 85%; in data set [4], 85%; in [9], 12.5 µg/mL; in [10], 3.1 µg/mL. Besides, the Activity in [11] was found to be 50 µg/mL; in [12], 100 µg/mL; in data set [13], 5 ppm; in data set [14], 5 ppm; in [15], 10 ppm; in data set [16], 0.01 µg/mL. Also, the outcome in data set [5], in data set [6], in data set [7] and in data set [8] was inactive. Moreover, the LD50 (usually the dose at which mortality reaches 50%) in [17] worked out at 20.4 mg/kg.
